{"source": "ChEMBL document CHEMBL5321255", "about": "“Sumatranins A-J: Lignans with Immunosuppressive Activity from Cleistanthus sumatranus” (J Nat Prod, 2023)", "key": {"[1]": {"tested_on": "Splenocyte", "assay": "Immunosuppressive activity in BALB/c mouse splenocytes assessed as inhibition of ConA-induced T cell proliferation by measuring [3H]-thymidine uptake by beta scintillation counter analysis", "type": "functional, cell-based"}, "[2]": {"assay": "Selectivity index, ratio of CC50 for cytotoxicity against BALB/c mouse splenocyte to IC50 for immunosuppressive activity in BALB/c mouse splenocytes assessed as inhibition of ConA-induced T cell proliferation", "type": "cell-based", "conditions": "read-out: Ratio CC50/IC50"}, "[3]": {"tested_on": "Splenocyte", "assay": "Immunosuppressive activity in BALB/c mouse splenocytes assessed as inhibition of LPS-induced B cell proliferation by measuring [3H]-thymidine uptake by beta scintillation counter analysis", "type": "functional, cell-based"}, "[4]": {"assay": "Cytotoxicity against BALB/c mouse splenocytes incubated for 48 hrs by MTT assay", "type": "toxicity, cell-based, Splenocyte"}, "[5]": {"assay": "Selectivity index, ratio of CC50 for cytotoxicity against BALB/c mouse splenocyte to IC50 for immunosuppressive activity in BALB/c mouse splenocytes assessed as inhibition of LPS-induced B cell proliferation", "type": "cell-based", "conditions": "read-out: Ratio CC50/IC50"}}}
{"smiles": "COc1cc2c(cc1O)O[C@H]1OC[C@H](Cc3cc4c(cc3O)OCO4)[C@H]1C2", "values": [{"measurement": "IC50", "setting": "[1]", "result": 14.8, "unit": "µM"}, {"measurement": "selectivity ratio", "setting": "[2]", "result": 5.6}, {"measurement": "IC50", "setting": "[3]", "result": 12.1, "unit": "µM"}, {"measurement": "CC50 at 48 h", "setting": "[4]", "result": 82.5, "unit": "µM"}, {"measurement": "selectivity ratio", "setting": "[5]", "result": 6.8}]}
{"smiles": "OC[C@H](Cc1ccc2c(c1)OCO2)[C@](O)(CO)Cc1cc2c(cc1O)OCO2", "values": [{"measurement": "IC50", "setting": "[1]", "result": 27.3, "unit": "µM"}, {"measurement": "selectivity ratio", "setting": "[2]", "result": 3.6}, {"measurement": "IC50", "setting": "[3]", "result": 18.2, "unit": "µM"}, {"measurement": "CC50 at 48 h", "setting": "[4]", "result": 99.3, "unit": "µM"}]}
{"smiles": "Oc1cc2c(cc1C[C@H]1CO[C@@H]3Oc4cc5c(cc4C[C@H]13)OCO5)OCO2", "values": [{"measurement": "IC50", "setting": "[1]", "result": 51.7, "unit": "µM"}, {"measurement": "selectivity ratio", "setting": "[2]", "result": 1.7}, {"measurement": "IC50", "setting": "[3]", "result": 32.8, "unit": "µM"}, {"measurement": "CC50 at 48 h", "setting": "[4]", "result": 90.3, "unit": "µM"}, {"measurement": "selectivity ratio", "setting": "[5]", "result": 2.8}]}
{"smiles": "OC[C@H](Cc1cc2c(cc1O)OCO2)[C@](O)(CO)Cc1cc2c(cc1O)OCO2", "values": [{"measurement": "IC50", "setting": "[1]", "result": 56.2, "unit": "µM"}, {"measurement": "selectivity ratio", "setting": "[2]", "result": 1.9}, {"measurement": "IC50", "setting": "[3]", "result": 26.7, "unit": "µM"}, {"measurement": "CC50 at 48 h", "setting": "[4]", "result": 108, "unit": "µM"}, {"measurement": "selectivity ratio", "setting": "[5]", "result": 4.1}]}
{"smiles": "COc1cc(C[C@H]2CO[C@@H]3Oc4cc5c(cc4C[C@H]23)OCO5)ccc1O", "values": [{"measurement": "IC50", "setting": "[1]", "result": 10.1, "unit": "µM"}, {"measurement": "selectivity ratio", "setting": "[2]", "result": 4}, {"measurement": "IC50", "setting": "[3]", "result": 2.7, "unit": "µM"}, {"measurement": "CC50 at 48 h", "setting": "[4]", "result": 40.1, "unit": "µM"}, {"measurement": "selectivity ratio", "setting": "[5]", "result": 14.9}]}
{"smiles": "O=C(Cc1ccc2c(c1)OCO2)[C@H](CO)Cc1ccc2c(c1)OCO2", "values": [{"measurement": "IC50", "setting": "[1]", "result": 18, "unit": "µM"}, {"measurement": "selectivity ratio", "setting": "[2]", "result": 3.8}, {"measurement": "IC50", "setting": "[3]", "result": 3.9, "unit": "µM"}, {"measurement": "CC50 at 48 h", "setting": "[4]", "result": 68, "unit": "µM"}, {"measurement": "selectivity ratio", "setting": "[5]", "result": 17.5}]}
